From patent US8431556B2, “C-21-keto lupane derivatives preparation and use thereof” (Vertex Pharmaceuticals Incorporated, priority 2008, dated 2013)

Test system: HIV-1 (HIVIIIB)
Experiment: HIV-1 replication in MT2 cell line with and without 30% human serum (viral RT activity in supernatant)
Type: cell-based
Details: Human immunodeficiency virus 1, MT2, MT-2 cells, with 30% human serum, average IC50 if tested more than once, read-out: MT-2 (HIVIIIB) with 30% HS IC50 range
Procedure, shortened: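 MT2 cells infected with HIVIIIB at MOI 0.5 for 3 h, washed, then cultured with serially diluted compound in RPMI/10% FBS, with or without 30% human serum, at 37° C. Compound-containing medium refreshed at day 3. Replication measured as supernatant RT activity at day 5; IC50 and IC90 from curve fits.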

| SMILES | IC50 [nM] |
| --- | --- |
| Cc1nnc(NC(=O)[C@@]23CC[C@]4(C)[C@H](CC[C@@H]5[C@@]6(C)CC[C@H](OC(=O)CC(C)(C)C(=O)O)C(C)(C)[C@@H]6CC[C@]54C)C2=C(C(C)C)C(=O)C3)s1 [9-76, 3β-O-(3′,3′-Dimethylsuccinyl)-21-oxolup-18-en-28-oic acid N-(5-methyl-[1,3,4]thiadiazol-2-yl)-acetamide] | < 199 |
| CC(C)C1=C2C3CCC4[C@@]5(C)CC[C@H](OC(=O)CC(C)(C)C(=O)O)C(C)(C)C5CC[C@@]4(C)[C@]3(C)CC[C@@]2(C(=O)NC(C)(C)C(F)(F)F)CC1=O (stereo partly drawn) [9-77, 3β-O-(3′,3′-Dimethylsuccinyl)-21-oxolup-18-en-28-oic acid N-(2,2,2-trifluoro-1,1-dimethyl-ethyl)-acetamide] | < 199 |
| CC(C)C1=C2C3CCC4[C@@]5(C)CC[C@H](OC(=O)CC(C)(C)C(=O)O)C(C)(C)C5CC[C@@]4(C)[C@]3(C)CC[C@@]2(C(=O)N(C)C(C)(C)C)CC1=O (stereo partly drawn) [9-78, 3β-O-(3′,3′-Dimethylsuccinyl)-21-oxolup-18-en-28-oic acid N-tert-butyl-N-methyl-acetamide] | < 199 |
| CC(C)C1=C2C3CCC4[C@@]5(C)CC[C@H](OC(=O)CC(C)(C)C(=O)O)C(C)(C)C5CC[C@@]4(C)[C@]3(C)CC[C@@]2(C(=O)NC[C@H]2CCCN2C(=O)OC(C)(C)C)CC1=O (stereo partly drawn) [9-79, 3β-O-(3′,3′-Dimethylsuccinyl)-21-oxolup-18-en-28-oic acid N-(R)-2-acetylaminomethyl-pyrrolidine-1-carboxylic acid tert-butyl ester] | < 199 |
| CC(C)C1=C2C3CCC4[C@@]5(C)CC[C@H](OC(=O)CC(C)(C)C(=O)O)C(C)(C)C5CC[C@@]4(C)[C@]3(C)CC[C@@]2(C(=O)NC[C@@H]2CCCN2C(=O)OC(C)(C)C)CC1=O (stereo partly drawn) [9-80, 3β-O-(3′,3′-Dimethylsuccinyl)-21-oxolup-18-en-28-oic acid N-(S)-2-acetylaminomethyl-pyrrolidine-1-carboxylic acid tert-butyl ester] | < 199 |
| CC(C)C1=C2C3CCC4[C@@]5(C)CC[C@H](OC(=O)CC(C)(C)C(=O)O)C(C)(C)C5CC[C@@]4(C)[C@]3(C)CC[C@@]2(C(=O)NC[C@H]2CCCN2)CC1=O (stereo partly drawn) [9-81, 3β-O-(3′,3′-Dimethylsuccinyl)-21-oxolup-18-en-28-oic acid N-((R)-1-pyrrolidin-2-ylmethyl)-acetamide] | < 199 |
| CC(C)C1=C2C3CCC4[C@@]5(C)CC[C@H](OC(=O)CC(C)(C)C(=O)O)C(C)(C)C5CC[C@@]4(C)[C@]3(C)CC[C@@]2(C(=O)NC[C@@H]2CCCN2)CC1=O (stereo partly drawn) [9-82, 3β-O-(3′,3′-Dimethylsuccinyl)-21-oxolup-18-en-28-oic acid N-((S)-1-pyrrolidin-2-ylmethyl)-acetamide] | < 199 |
| CC(C)C1=C2C3CCC4[C@@]5(C)CC[C@H](OC(=O)CC(C)(C)C(=O)O)C(C)(C)C5CC[C@@]4(C)[C@]3(C)CC[C@@]2(C(=O)NC[C@H]2CCCN2C)CC1=O (stereo partly drawn) [9-83, 3β-O-(3′,3′-Dimethylsuccinyl)-21-oxolup-18-en-28-oic acid N-((R)-1-methyl-pyrrolidin-2-ylmethyl)-acetamide] | < 199 |
| CC(C)C1=C2C3CCC4[C@@]5(C)CC[C@H](OC(=O)CC(C)(C)C(=O)O)C(C)(C)C5CC[C@@]4(C)[C@]3(C)CC[C@@]2(C(=O)NC[C@@H]2CCCN2C)CC1=O (stereo partly drawn) [9-84, 3β-O-(3′,3′-Dimethylsuccinyl)-21-oxolup-18-en-28-oic acid N-((S)-1-methyl-pyrrolidin-2-ylmethyl)-acetamide] | < 199 |
| CC(C)C1=C2[C@H]3CC[C@@H]4[C@@]5(C)CC[C@H](OC(=O)CC(C)(C)C(=O)O)C(C)(C)[C@@H]5CC[C@@]4(C)[C@]3(C)CC[C@@]2(C(=O)NC2CCC(F)(F)CC2)CC1=O [9-85, 3β-O-(3′,3′-Dimethylsuccinyl)-21-oxolup-18-en-28-oic acid N-(4,4-difluoro-cyclohexyl) acetamide] | < 199 |
